Test results as given in US20230287068A1, “KERATIN BD-6, PREPARATION METHOD THEREFOR AND PHARMACEUTICAL COMPOSITION AND USE THEREOF” (INSTITUTE OF MATERIAL MEDICA, CHINESE ACADEMY OF MEDICAL …, priority 2019, published 2023).
Structures can show the parent of a compound that is named as a salt. Marks after values point to notes of the source that are not given here.

Assays:
[1] = test system: PLO-induced epilepsy in mice; test: Pilocarpine (PLO) induced convulsive epilepsy in mice; type: in vivo, ICR mice; set-up: mortality rate: unit not given here; details: Diazepam 2 mg/kg, PLO 225 mg/kg i.p.
Procedure: • Animals: male ICR mice; • Drugs: Pilocarpine HCl (PLO, pilocarpine, pilocarpine hydrochloride), Diazepam (diazepam tablets), protein BD-6. • Experiment grouping: • Model group: • Diazepam 2 mg/kg group; • Protein BD-6, 50 mg/kg group, 200 mg/kg group.
The drug was administered once in the afternoon the day before modeling, PLO-225 mg/kg (modeling agent) was injected intraperitoneally 1 hour after the test drug was administered intragastrically on the day of modeling. And positive drug can be administered once 20 minutes before modeling. Observe for 30 minutes after PLO injection.
Observation indicators: ①Seizure situation: the time of seizures from Grade II to Grade IV; ②the time to death.
(§1) Seizure grade: Refer to Racine grading standard: Grade 0: No response; Grade I: manifested as twitching of facial muscles or the corners of the mouth; Grade II: can nod; Grade III: twitching of one limb; Grade IV: rigidity or body twitching; Grade V: generalized epilepsy (generalized tonic seizures).
Count the number of Grade IV seizures and deaths in each group of mice in the experiment; Grade II, III and IV incubation period. […] Chi-square test was used for statistics of the number of cases. The mean value and standard error of the incubation period were calculated, and TTEST was used to compare the model group with other groups. P<0.05 was considered as a significant difference.

[2] = test system: PTZ-induced epilepsy in mice; test: Pentylenetetrazole (PTZ) induced epilepsy in mice; type: in vivo, ICR mice; details: Retigabine 60 mg/kg, PTZ 65 mg/kg i.p.
Procedure: • Animals: male ICR mice; • Medicines: Pentylenetetrazol (PTZ), Retigabine, Protein BD-6. • Experiment grouping: • Model group; • Retigabine 60 mg/kg group; • Protein BD-6, 50 mg/kg group, 200 mg/kg group;
The drug was administered once in the afternoon the day before modeling, On the day of modeling, PTZ-65 mg/kg (modeling agent) was injected intraperitoneal 1 hour after the test drug was administered intragastrically, and the positive drug can be administered once half an hour before modeling. Continue to observe for 15 minutes after injection of PTZ.
Observation index: ①Seizure situation: the time of seizures from Grade III to Grade VI; ②Death situation
as §1
Count the cases of seizures and deaths in each group of mice in the experiment; Grade III and IV incubation period. The incubation period of mice that have not attacked to Grade IV is recorded as the maximum of 900 seconds. Chi-square test was used for statistics of the number of cases. Calculate the mean and standard error of the incubation period. Use TTEST to compare the model group with other groups, and P<0.05 is considered as a significant difference.

[3] = test system: mice cough induced by ammonia water; test: Antitussive test, cough induced by ammonia water in mice; type: in vivo, ICR mice
Procedure: • Animals: male ICR mice; • Drugs and reagents: dextromethorphan hydrobromide, ammonia water, 0.2% CMC-Na, protein BD-6; • Apparatus: Compressed nebulizer (403T type), balance (XS105DU type). • Experiment grouping: • Solvent control group; • Dextromethorphan 15 mg/kg group; • Protein BD-6, 20 mg/kg group, 50 mg/kg group.
Dextromethorphan and different doses of protein BD-6 (administration volume 10 ml/kg) were given orally in groups, and the solvent control group was given the same volume of distilled water. One hour later, mice were put into a sealed box and atomized 10% ammonia water for 10 seconds, and then observed and recorded the incubation period of cough in mice and the number of coughs in 2 minutes.
Record the time point of oral administration, the time point of atomization experiment, the incubation period of mice cough and the number of coughs within 2 minutes, respectively. The incubation period of cough refers to the number of seconds from the start of the atomization of ammonia to the occurrence of cough. The performance of coughing in mice is based on contraction of their abdominal muscles (breast contraction) and opening their mouths at the same time. Calculate the mean and standard error of each group of data, and use TTEST to compare the model group with other groups, and P<0.05 is considered as a significant difference.

[4] = test system: acetic acid writhing of ICR mice; test: Acetic acid writhing test in ICR mice; type: in vivo
Procedure: • Animals: male ICR mice; • Drugs and reagents: aspirin, physiological saline, glacial acetic acid, protein BD-6. • Experiment grouping: • Model group; • Aspirin 300 mg/kg group; • Protein BD-6, 50 mg/kg group, 200 mg/kg group.
One day after the experimental animals adapt to the environment, Aspirin 300 mg/kg, protein BD-6 50 mg/kg, 200 mg/kg were given orally one hour in advance, and the administration volume was 10 ml/kg; Then, 0.6% acetic acid solution was injected intraperitoneally, and the incubation period (seconds) and frequency of writhing in the animal was observed within 15 minutes.
Calculate the mean and standard error of the data in each group. Compared with the model group by TTEST, P<0.05 was considered as statistically different.

[5] = test system: lipopolysaccharide (LPS) induced fever model in rats; test: Lipopolysaccharide (LPS) induced fever model in SD rats; type: in vivo
Procedure: • Animals: 230-260 grams of male SD rats; • Drugs: lipopolysaccharide (LPS, SIGMAL-2880), aspirin (SIGMAA2093), protein BD-6; • Instruments: electronic balance (SARTORIUS BP121S type), electronic clinical thermometer (CITIZEN CT-513W type). • Experiment grouping: • Normal control group; • Model group: lipopolysaccharide fever model; • Positive control group: Aspirin 300 mg/kg group; • Protein BD-6, 10 mg/kg group, 50 mg/kg group.
Method: the method of intraperitoneal injection of Lipopolysaccharide to replicate rat fever model.
(§2) Preparation of experimental animals: After the experimental animals adapt to the experimental environment (temperature 22° C.±2° C., relative humidity 50%±2%) for 1 day. Pre-adaptation to measure rectal temperature at 8:00 and 15:00, rats were fasted and water was taken freely 12 h before experiment, and let the animal to empty its feces before measuring the rectal temperature. Apply petroleum jelly to the electronic thermometer probe before each temperature measurement. Insert the rat rectum 2 cm (can be marked at 2 cm to ensure that the depth of each insertion is consistent), and record the body temperature after the reading is stable.
Intraperitoneal injection of lipopolysaccharide to replicate rat fever model: The body temperature of the rats was measured before modeling. Qualified rats with a body temperature of 36.2-37.3° C. were selected and randomly divided into groups with 8 rats in each group. After oral administration of aspirin and different doses of protein BD-6, lipopolysaccharide (20 µg/kg, 2 ml/kg) was injected intraperitoneally immediately, and the normal control group was injected intraperitoneally with an equal volume of normal saline. The body temperatures of the rats were monitored after 2 hours for a total of 8 hours.
(§3) According to the body temperature measured at each time point on the day of the experiment, calculate the mean, standard deviation and standard error of the body temperature of each group of rats. The data of each group was compared with TTEST, and P<0.05 was considered as a significant difference.

[6] = test system: yeast-induced fever model in rats; test: Yeast-induced fever model in SD rats; type: in vivo
Procedure: • Medicines: yeast (OXOID LP0021), aspirin (SIGMA A2093), protein BD-6; • Instruments: electronic balance (SARTORIUS BP121S type), electronic clinical thermometer (CITIZEN CT-513W type). • Experiment grouping: • Normal control group; • Model group: yeast fever model; • Positive control group: Aspirin 300 mg/kg group; • Protein BD-6, 10 mg/kg group, 50 mg/kg group.
as §2
Subcutaneous injection of dry yeast to replicate rat fever model: The body temperature of the rats was measured before modeling. Qualified rats with a body temperature of 36.2-37.3° C. were selected and randomly divided into groups with 8 rats in each group. After oral administration of aspirin and different doses of protein BD-6, 20% yeast suspension (10 ml/kg) was injected subcutaneously immediately, and the normal control group was injected intraperitoneally with an equal volume of normal saline. The body temperatures of the rats were monitored after 2 hours for a total of 8 hours.
as §3

[7] = aspirin 300 mg/kg oral, 0.6% acetic acid i.p., within 15 minutes
[8] = aspirin 300 mg/kg oral, LPS 20 µg/kg i.p., SD rats
[9] = aspirin 300 mg/kg oral, 20% yeast s.c., SD rats

CN1C(=O)CN=C(c2ccccc2)c2cc(Cl)ccc21 [Diazepam, reference compound]
Cases of deaths ([1]; 10 mice): 0
Grade IV seizure rate ([1]; 10 mice): 0** %
mortality rate ([1]; 10 mice): 0
Cases of Grade IV ([1]; 10 mice, 30 min observation): 0**
Grade II seizure incubation period ([1]; mean±SEM): 151±6^∗∗ s
Grade III seizure incubation period ([1]; mean±SEM): 275±20^∗∗ s
Grade IV seizure incubation period ([1]; mean±SEM, maximum 1800 seconds): 1800±0^∗∗ s

CCOC(=O)Nc1ccc(NCc2ccc(F)cc2)cc1N [Retigabine, reference compound]
Cases of deaths ([2]; 10 mice): 0
Grade IV seizure rate ([2]; 10 mice): 40%*
mortality rate ([2]; 10 mice): 0%
Cases of Grade IV ([2]; 10 mice, 15 min observation): 4*
Grade III seizure incubation period ([2]; mean±SEM): 104±13^∗∗ s
Grade IV seizure incubation period ([2]; mean±SEM, maximum 900 seconds): 634±109^∗∗ s

COc1ccc2c(c1)[C@]13CCCC[C@@H]1[C@H](C2)N(C)CC3 [Dextromethorphan, dextromethorphan hydrobromide, reference compound]
Incubation period (cough) ([3]; Dextromethorphan 15 mg/kg oral, 10% ammonia water 10 seconds, X±SEM): 37.3 ± 2.4 s
Number of coughs ([3]; Dextromethorphan 15 mg/kg oral, within 2 minutes, X±SEM): 30.2±2.0^∗∗
Incubation period and number of coughs vs solvent control (in words) ([3]; dextromethorphan 15 mg/kg, P<0.05): significant improvement in the incubation period and the number of coughs

CC(=O)Oc1ccccc1C(=O)O [aspirin, reference compound]
Writhing incubation period and times of writhing vs model group (in words) ([4]; Aspirin 300 mg/kg, P<0.05): can significantly delay the incubation period of writhing and reduce the times of writhing
Frequency of writhing [4, 7]: 14.8±3.3^∗∗ times
Writhing incubation period [4, 7]: 281.6±26.0^∗∗ seconds
Body temperature 2 hours after modeling [5, 8]: 36.7±0.1 °C
Body temperature 4 hours after modeling [5, 8]: 36.7±0.1 °C
Body temperature 6 hours after modeling [5, 8]: 36.6±0.1 °C
Body temperature 8 hours after modeling [5, 8]: 36.6±0.1 °C
Effect on increase in body temperature (in words) ([5]; aspirin 300 mg/kg, 2, 4, 6 and 8 hours after modeling, P<0.05 vs model group): can effectively inhibit the increase in body temperature of model rats
Body temperature 2 hours after modeling [6, 9]: 37.1±0.1 °C
Body temperature 4 hours after modeling [6, 9]: 37.0±0.1 °C
Body temperature 6 hours after modeling [6, 9]: 37.1±0.1 °C
Body temperature 8 hours after modeling [6, 9]: 37.1±0.1 °C
Effect on increase in body temperature (in words) ([6]; aspirin 300 mg/kg, 4, 6 and 8 hours after modeling, P<0.05 vs model group): can effectively inhibit the increase in body temperature of model rats
